This note sets out measurements from patent US20130273181A1, “METHODS AND COMPOSITIONS FOR DIAGNOSING AND TREATING MUSCLE MYOPATHY DISORDERS” (The Regents of the University of Colorado, a body Corporate, priority 2012, published 2013).

Assay in all cases: Calcium transient measurements (Fluo-3) in cultured myotubes in response to RyR1 agonist
Test [1] concerns RyR1. The test is classed as cell-based, mouse. As to conditions: 4-CmC; Ryr1^tm1Alle/tm1Alle null myotubes; n=6. The source says: (§1) RyR1 functions as a muscle isotype of ryanodine receptors that is mechanically activated by Dihydropyridine receptor (hereinafter “DHPR”) to release Ca^2+ from the sarcoplasmic reticulum (hereinafter SR), thus evoking excitation-contraction coupling (hereinafter E-C coupling). In some exemplary methods, whole-cell clamping in combination with a fluorescent Ca^2+ indicator, such as Fluo-3 AM, was used to study the E-C coupling function of RyR1^m1Nisw mutant protein in cultured myotubes. […] Addition of the RyR1 agonist, 4-chloro-m-cresol (4-CmC; 0.5 mM), produced substantial Ca^2+ release in both normal and Ryr1^m1Nisw/m1Nisw myotubes (peak ΔF/F of 1.4±0.1; n=5 vs. 1.2±0.1; n=3, respectively; p>0.05; FIG. 2d, e), compared to Ryr1^tm1Alle/tm1Alle null myotubes (ΔF/F 0.1±0.0; n=6; FIG. 2e). […] However, the rate of SR Ca^2+ release in response to 4-CmC was much slower in Ryr1^m1Nisw/m1Nisw versus normal myotubes (t1/2act=6.5±2.4 vs. 2.2±0.6 s, respectively; p<0.01; FIG. 2d). […] Under controlled physiological conditions, RyR1^m1Nisw/m1Nisw protein may be non-functional compared to wild type RyR1 in skeletal muscle.
(§2) FIG. 2a provides representative recordings of myoplasmic Ca^2+ transients elicited by 50-ms depolarizations from −50 mV to the indicated test potentials for locomotor normal myotubes (left; L. Normal) and Ryr1^m1Nisw/m1Nisw myotubes (right). […] FIG. 2c represents an exemplary histogram illustrating fractions of myotubes that contracted in response to a 100 V, 10 ms electrical stimulus for normal myotubes (black bar), Ryr1^m1Nisw/m1Nisw myotubes, and Ryr1^m1Nisw/m1Nisw myotubes transfected with YFP-tagged wild type RyR1 (RyR1-YFP, grey bar). The total number of myotubes tested is indicated above each bar. The defect of contraction observed in Ryr1^m1Nisw/m1Nisw myotubes (0%) was restored to 50-60% by expression of RyR1-YFP compared to the normal myotubes (90%). […] FIG. 2e represents an exemplary histogram of half-rise time of Ca^2+ transients in response to 4-CmC observed in normal (blackzbar), Ryr1^m1Nisw/m1Nisw (grey bar) and RyR1^tm1Alle/tm1Alle (white bar) myotubes. Error bars represent±SEM. An asterisk indicates a significant difference (p=0.006; t-test). The total number of myotubes tested is indicated above each bar.
(§3) Intracellular Ca^2+ was recorded with Fluo-3 (Invitrogen) at a final concentration of 200 μM that was injected by whole cell configuration, a waiting period of >5 min was used to allow the dye to diffuse into the cell interior. The total change in fluorescence (ΔF/F) was determined from the change in peak fluorescence from initial baseline during stimulation and F was the fluorescence immediately before the test pulse minus the measured average background (non Fluo-3) fluorescence before dye entry. For normal myotubes, average values of fluorescence change (ΔF) for each test potential (V) were fitted according to: (ΔF)=(ΔF)max/{1+exp[(VF−V)/kF]}, where (ΔF)max=1093 au, VF=−1.4 mV and kF=5.5 mV. Fluorescence emission was measured by fluorometer. Ryr1 cDNA was provided by Kurt Beam and Roger Bannister assisted in these experiments.

Test [2] deals with T1, RyR1 (Mus musculus, UniProt E9PZQ0, E4242G).
T1 construct: produced substantial Ca^2+ release in both normal and Ryr1^m1Nisw/m1Nisw myotubes; endogenous in cells; host or cells: cultured myotubes from locomotor-normal mouse embryos
T1 sequence (E9PZQ0 whole entry E4242G): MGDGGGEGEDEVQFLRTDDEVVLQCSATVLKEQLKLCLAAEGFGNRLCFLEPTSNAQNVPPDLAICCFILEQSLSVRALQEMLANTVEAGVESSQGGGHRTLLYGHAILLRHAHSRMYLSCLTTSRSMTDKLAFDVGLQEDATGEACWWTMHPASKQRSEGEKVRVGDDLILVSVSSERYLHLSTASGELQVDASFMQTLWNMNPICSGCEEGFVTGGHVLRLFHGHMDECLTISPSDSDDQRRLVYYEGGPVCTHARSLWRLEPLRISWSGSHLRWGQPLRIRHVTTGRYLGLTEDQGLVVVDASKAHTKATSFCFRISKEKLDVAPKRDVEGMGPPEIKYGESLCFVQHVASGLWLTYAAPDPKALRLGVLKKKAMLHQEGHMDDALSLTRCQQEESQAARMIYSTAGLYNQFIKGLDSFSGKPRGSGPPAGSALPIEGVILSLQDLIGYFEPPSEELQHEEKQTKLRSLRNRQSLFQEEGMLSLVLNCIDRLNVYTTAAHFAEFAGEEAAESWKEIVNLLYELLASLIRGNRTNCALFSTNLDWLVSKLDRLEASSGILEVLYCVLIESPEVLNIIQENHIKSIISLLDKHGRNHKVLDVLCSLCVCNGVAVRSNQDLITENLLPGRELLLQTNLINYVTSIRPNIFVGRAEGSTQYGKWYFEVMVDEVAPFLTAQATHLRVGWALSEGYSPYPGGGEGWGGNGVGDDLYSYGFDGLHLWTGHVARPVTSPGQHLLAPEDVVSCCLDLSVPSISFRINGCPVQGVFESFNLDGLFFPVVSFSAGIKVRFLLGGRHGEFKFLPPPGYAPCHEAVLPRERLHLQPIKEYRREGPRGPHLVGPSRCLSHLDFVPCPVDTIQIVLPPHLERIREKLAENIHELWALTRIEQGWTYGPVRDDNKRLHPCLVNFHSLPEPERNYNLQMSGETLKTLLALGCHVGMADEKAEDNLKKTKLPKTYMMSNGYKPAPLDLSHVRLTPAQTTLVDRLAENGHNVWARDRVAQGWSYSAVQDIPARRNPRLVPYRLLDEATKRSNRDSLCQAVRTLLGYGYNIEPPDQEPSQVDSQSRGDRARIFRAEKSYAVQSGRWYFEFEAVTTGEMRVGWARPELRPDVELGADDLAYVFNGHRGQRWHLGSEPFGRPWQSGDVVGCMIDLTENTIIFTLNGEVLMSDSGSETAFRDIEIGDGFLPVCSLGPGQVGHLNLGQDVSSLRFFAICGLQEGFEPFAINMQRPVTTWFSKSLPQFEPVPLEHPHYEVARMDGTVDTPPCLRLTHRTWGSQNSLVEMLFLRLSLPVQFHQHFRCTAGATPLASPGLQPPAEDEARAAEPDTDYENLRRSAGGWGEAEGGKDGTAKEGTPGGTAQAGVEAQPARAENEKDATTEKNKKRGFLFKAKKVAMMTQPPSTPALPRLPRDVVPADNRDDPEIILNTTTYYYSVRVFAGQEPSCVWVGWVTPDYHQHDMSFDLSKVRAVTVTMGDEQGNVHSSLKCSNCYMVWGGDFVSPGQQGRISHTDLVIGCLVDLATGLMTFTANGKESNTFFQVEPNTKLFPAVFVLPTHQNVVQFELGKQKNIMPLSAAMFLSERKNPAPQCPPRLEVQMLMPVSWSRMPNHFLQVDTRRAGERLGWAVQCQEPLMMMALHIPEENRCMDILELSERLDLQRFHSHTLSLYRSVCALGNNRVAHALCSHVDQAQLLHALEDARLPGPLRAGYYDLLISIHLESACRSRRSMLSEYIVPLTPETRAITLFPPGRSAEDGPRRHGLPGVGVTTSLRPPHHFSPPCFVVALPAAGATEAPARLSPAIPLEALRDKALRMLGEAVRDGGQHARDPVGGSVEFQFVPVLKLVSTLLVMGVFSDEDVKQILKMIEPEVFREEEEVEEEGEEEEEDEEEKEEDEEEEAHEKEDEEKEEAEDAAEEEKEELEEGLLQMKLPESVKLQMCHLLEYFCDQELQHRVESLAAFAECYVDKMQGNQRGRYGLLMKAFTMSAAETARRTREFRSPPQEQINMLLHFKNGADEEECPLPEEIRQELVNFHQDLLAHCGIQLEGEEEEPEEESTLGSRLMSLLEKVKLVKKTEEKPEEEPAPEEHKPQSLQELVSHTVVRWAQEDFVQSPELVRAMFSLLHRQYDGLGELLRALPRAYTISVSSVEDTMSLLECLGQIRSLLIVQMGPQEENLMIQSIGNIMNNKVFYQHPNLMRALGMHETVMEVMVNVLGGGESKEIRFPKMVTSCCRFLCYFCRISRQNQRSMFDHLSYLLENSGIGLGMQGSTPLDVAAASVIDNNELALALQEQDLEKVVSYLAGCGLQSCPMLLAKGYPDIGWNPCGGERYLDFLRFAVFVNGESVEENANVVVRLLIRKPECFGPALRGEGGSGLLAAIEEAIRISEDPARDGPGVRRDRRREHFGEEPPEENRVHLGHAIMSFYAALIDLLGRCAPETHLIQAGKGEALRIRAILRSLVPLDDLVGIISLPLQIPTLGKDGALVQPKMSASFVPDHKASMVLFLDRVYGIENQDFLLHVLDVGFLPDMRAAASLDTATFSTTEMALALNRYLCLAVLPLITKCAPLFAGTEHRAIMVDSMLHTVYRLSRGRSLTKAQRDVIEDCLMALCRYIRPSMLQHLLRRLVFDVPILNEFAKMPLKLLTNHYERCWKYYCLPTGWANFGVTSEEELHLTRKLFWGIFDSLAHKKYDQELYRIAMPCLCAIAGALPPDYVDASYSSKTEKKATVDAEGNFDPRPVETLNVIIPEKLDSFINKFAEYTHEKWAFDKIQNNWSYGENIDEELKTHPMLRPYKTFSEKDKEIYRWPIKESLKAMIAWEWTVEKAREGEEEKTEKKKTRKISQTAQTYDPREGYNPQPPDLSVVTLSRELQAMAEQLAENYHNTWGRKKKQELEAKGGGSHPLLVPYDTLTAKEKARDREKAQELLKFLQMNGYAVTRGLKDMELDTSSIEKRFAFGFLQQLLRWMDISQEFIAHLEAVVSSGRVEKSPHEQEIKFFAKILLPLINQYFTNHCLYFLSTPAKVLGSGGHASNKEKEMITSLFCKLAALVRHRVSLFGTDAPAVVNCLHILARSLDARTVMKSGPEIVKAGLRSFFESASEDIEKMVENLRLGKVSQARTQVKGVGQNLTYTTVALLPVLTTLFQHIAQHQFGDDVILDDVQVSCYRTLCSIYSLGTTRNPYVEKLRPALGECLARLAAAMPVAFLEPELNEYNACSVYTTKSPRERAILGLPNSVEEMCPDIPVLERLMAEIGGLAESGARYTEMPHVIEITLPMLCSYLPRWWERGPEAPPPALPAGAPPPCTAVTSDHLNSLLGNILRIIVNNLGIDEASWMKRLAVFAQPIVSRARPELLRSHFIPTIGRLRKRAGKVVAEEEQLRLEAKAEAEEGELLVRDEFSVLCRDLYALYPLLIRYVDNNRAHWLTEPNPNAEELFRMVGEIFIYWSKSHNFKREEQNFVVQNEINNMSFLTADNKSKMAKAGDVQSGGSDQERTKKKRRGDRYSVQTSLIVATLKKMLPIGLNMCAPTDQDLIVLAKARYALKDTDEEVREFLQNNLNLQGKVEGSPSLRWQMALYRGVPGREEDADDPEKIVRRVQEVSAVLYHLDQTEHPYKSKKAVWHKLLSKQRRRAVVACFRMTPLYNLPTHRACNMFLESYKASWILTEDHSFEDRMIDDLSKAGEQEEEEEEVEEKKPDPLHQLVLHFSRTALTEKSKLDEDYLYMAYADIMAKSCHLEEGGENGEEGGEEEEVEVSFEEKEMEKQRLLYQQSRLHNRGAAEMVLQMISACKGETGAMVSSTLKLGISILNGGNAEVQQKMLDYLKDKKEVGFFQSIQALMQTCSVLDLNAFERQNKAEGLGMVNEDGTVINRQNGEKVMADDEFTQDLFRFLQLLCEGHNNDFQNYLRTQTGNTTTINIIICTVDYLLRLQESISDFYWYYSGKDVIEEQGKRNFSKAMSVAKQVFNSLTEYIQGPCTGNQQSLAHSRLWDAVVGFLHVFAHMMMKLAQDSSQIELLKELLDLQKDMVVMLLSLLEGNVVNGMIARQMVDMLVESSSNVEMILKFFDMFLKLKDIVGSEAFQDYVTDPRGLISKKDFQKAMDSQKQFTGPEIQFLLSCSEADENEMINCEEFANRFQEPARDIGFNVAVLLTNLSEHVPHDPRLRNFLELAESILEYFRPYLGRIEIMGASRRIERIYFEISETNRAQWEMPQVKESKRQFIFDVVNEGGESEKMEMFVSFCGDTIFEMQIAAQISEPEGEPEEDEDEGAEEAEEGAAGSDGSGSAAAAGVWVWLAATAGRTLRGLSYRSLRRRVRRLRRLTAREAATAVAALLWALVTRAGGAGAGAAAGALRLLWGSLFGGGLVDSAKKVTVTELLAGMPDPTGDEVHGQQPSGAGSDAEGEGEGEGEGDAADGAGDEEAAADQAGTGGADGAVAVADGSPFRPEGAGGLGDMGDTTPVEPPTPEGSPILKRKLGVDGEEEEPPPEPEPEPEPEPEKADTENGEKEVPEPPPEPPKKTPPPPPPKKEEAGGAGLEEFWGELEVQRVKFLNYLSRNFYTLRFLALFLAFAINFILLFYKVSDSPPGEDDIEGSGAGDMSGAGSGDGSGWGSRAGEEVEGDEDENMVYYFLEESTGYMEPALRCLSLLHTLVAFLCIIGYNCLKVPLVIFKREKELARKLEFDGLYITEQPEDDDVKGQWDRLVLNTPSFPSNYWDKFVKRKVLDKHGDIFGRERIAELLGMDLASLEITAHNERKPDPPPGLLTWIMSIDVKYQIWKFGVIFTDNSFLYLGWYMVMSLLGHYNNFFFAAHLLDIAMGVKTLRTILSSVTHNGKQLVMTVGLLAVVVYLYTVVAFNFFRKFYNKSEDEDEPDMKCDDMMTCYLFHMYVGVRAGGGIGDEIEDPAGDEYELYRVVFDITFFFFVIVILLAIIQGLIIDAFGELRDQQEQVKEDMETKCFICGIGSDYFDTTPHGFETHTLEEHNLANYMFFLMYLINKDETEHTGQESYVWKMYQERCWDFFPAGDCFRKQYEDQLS
In kind it is cell-based. As to conditions: 4-CmC 0.5 mM, Ryr1^m1Nisw/m1Nisw myotubes.
Excerpt: as §1, §2, §3

In test [3] the target is T2, RyR1 (Mus musculus, UniProt E9PZQ0).
T2 construct: produced substantial Ca^2+ release in both normal and Ryr1^m1Nisw/m1Nisw myotubes; endogenous in cells; host or cells: cultured myotubes from locomotor-normal mouse embryos
T2 sequence (E9PZQ0 whole entry): as the sequence (E9PZQ0 whole entry E4242G) above, with G4242E counted along it
The test is classed as cell-based. As to conditions: 4-CmC 0.5 mM, normal myotubes.
Excerpt: as §1, §2, §3

Regarding `Cc1cc(O)ccc1Cl` [4-CmC, 4-chloro-m-cresol], the “ΔF/F (Ca^2+ release)” value in the test with RyR1 [1] is given as 0.1±0.0. The “t1/2act (rate of SR Ca^2+ release)” value turned out to be 6.5 ± 2.4 s on RyR1 [2] and 2.2 ± 0.6 s at RyR1 [3]. Besides, the “peak ΔF/F (Ca^2+ release)” value on RyR1 [2] (n=3) is on record as 1.2±0.1; on RyR1 [3] (n=5), 1.4±0.1.
